The subject of experiment [1] is Mononuclear cells from peripheral blood (PBMNC). The experiment in a line: Multiplication of NK and T lymphocytes from mononuclear cells of human blood in serum-free medium. The class given is cell-based. The following applies: serum-free DF medium, single cytokine. The source says: Mononuclear cells from peripheral blood (PBMNC) of a human donor are isolated by means of gradient centrifugation (lymphocyte separation medium, Boehringer Mannheim GmbH, Germany (BM)), washed twice with phosphate-buffered saline solution and taken up in DF medium at a density of 1×10^6 cells/ml and cultured in three separate preparations which are denoted A, B and C. […] Half of the culture medium (+cytokine(s)) is renewed every second day and the cell count is adjusted to ca. 1×10^6 cells/ml during the first 7 days and subsequently to ca. […].

Another experiment concerns killer T cells. Description: Multiplication of killer T cells in serum-free DF medium. Format: cell-based, human. The method, then:
Mononuclear cells from peripheral blood (PBMNC) of human donors are isolated by means of gradient centrifugation (lymphocyte separation medium, BM), washed twice with phosphate-buffered saline solution and incubated at a density of 5-10×10^6 cells/ml DF medium according to Thiele and Lipsky (J. Immunol. 136 (1986) 1038-1048) with 250 μM leucyl-leucine-methyl ester (BM) for 20 minutes at room temperature. After washing with DF medium the cells are cultured at 37° C. in 8% CO2 atmosphere at a density of 1-2×10^6 per ml DF medium together with irradiated (2000 rad) HB654 cells or HB617 cells (stimulator cells; 2-5×10^5 per ml). On day 5-6 of the co-culture half to two thirds of the culture medium is renewed and irradiated stimulator cells (2-5×10^5 per ml) are added again. From day 8-10 after starting the co-culture, when all stimulator cells have been destroyed by the cytotoxic activity of the killer T cells, the killer T cells are used for the following examples. […]

In the case of TGFβ1: rh TGFβ1 (BM), 4 ng/ml, the “growth behaviour of the cells (in words)” value in experiment [1] is recorded as “do not multiply”. In the case of `CC[C@@H]1/C=C(\C)C[C@H](C)C[C@H](OC)[C@H]2O[C@@](O)(C(=O)C(=O)N3CCCC[C@H]3C(=O)O[C@H](/C(C)=C/[C@@H]3CC[C@@H](O)[C@H](OC)C3)[C@H](C)[C@@H](O)CC1=O)[C@H](C)C[C@@H]2OC` [Ascomycin, reference compound], the “multiplication of killer T cells (in words)” value in the experiment with killer T cells (additive alone, without growth factor) is reported as “no multiplication”.

On to “IL-15: Human recombinant IL-15 (R & D Systems), 15 ng/ml, lymphocyte growth factor”, for which the “doubling cycles after which proliferation stagnates” value in the experiment with killer T cells (growth factor alone) is listed as 3 doubling cycles.

The values are drawn from US6511848B2, “Process for producing and multiplying lymphocytes” (Winfried Albert, priority 1996, dated 2003).
